pIC50: −log10 of the molar value.
Assays:
[1] = Inhibition of LPS-induced NFkappaB expression in mouse RAW264.7 cells pretreated for 4 hrs before LPS challenge measured after 24 hrs by luciferase reporter gene assay relative to control; type: cell-based
Influenza A virus = test: Antiviral activity against Influenza A virus (A/Puerto Rico/8/34(H1N1)) infected in MDCK cells assessed as inhibition of virus induced cytopathicity after 48 hrs; type: functional, organism-based; conditions: A/Puerto Rico/8/1934(H1N1)
RAW264.7 = test: Inhibition of LPS-induced NFkappaB expression in mouse RAW264.7 cells at 0.1 uM pretreated for 4 hrs before LPS challenge measured after 24 hrs by luciferase reporter gene assay relative to control; type: cell-based

SMILES	pIC50 [1]	pIC50 (Influenza A virus)	inhibition (RAW264.7)
CCC(C)CC(C)/C=C(/C=C(C)/C=C/C=C/C=C/C=C/C=C/c1cc(O)c([C@@H]2O[C@H](CO)[C@H](O)[C@H](O)[C@H]2O)c(=O)o1)C(=O)O (stereo partly specified)	4.30	3.99	
S=C(S)N1CCCC1			85%
CCC(C)CC(C)/C=C(/C=C(C)\C=C\C=C\C=C\C=C\C=C\c1cc(O)c([C@@H]2O[C@H](CO)[C@H](O)[C@H](O)[C@H]2O)c(=O)o1)C(=O)O (stereo partly specified)	4.40	4.04	
NC(=O)c1ncn([C@@H]2O[C@H](CO)[C@@H](O)[C@H]2O)n1 [RIBAVIRIN]		3.94	

Reference: ChEMBL document CHEMBL2016569, “Pyronepolyene C-glucosides with NF-κB inhibitory and anti-influenza A viral (H1N1) activities from the sponge-associated fungus Epicoccum sp. JJY40” (Bioorg Med Chem Lett, 2012)
